Results: patent US12691070B2, “Cationic lipids and preparation method thereof” (RiboX Therapeutics HK Limited, priority 2023, dated 2026)

Key:
[1] = RNA encapsulation efficacy by Quant-IT Ribogreen kit; assay type: physicochemical; conditions: LNP with cirRNA (SEQ ID NO: 1)
Outline: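 Encapsulation efficacy came from Ribogreen fluorescence of LNPs compared with Triton X-100-lysed LNPs. The particles carried luciferase-encoding circular or linear RNA at an ionizable lipid:ribonucleotide ratio of 15 or 6.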

[2] = LNP size and polydispersity index (PDI) by dynamic light scattering; assay type: physicochemical; conditions: LNP with cirRNA (SEQ ID NO: 1); for Size: in nm (unit assumed)
Outline: (§1)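 Ribogreen fluorescence with and without Triton X-100 gave encapsulation as 100% − (intact/lysed) signal; DLS size, PDI and zeta potential measured on a Zetasizer. Particles: 50:10:38.5:1.5 lipid mix, luciferase circRNA or mRNA, lipid:nucleotide 15 or 6, microfluidic assembly at pH 4.5, PBS-dialyzed.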

RAW 264.7 cells [3] = test: In vitro toxicity (CellTiter-Glo cell viability), RAW 264.7; assay type: cell-based; conditions: cirRNA (SEQ ID NO: 1) LNPs; RAW 264.7 cells;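 further: percent of untreated cells luminescence signal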
Outline: (§2)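 Viability after a 72 h incubation with 1 μg/mL RNA-LNP formulations was assessed luminometrically using CellTiter-Glo.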

BALB/C mice = test: In vivo expression, whole-body luminescence (IVIS); conditions: cirRNA (SEQ ID NO: 1) LNPs, BALB/C mice
Protocol: 6-8 week old, female BALB/C mice were injected with 0.05 mg*kg-1 of RNA-LNPs encoding for firefly-luciferase by intravenous injection. At 6 hours post injection, animals were intraperitoneally injected with 15 mg/ml of Luciferin substrate and whole-body luminescence was determined by a bioluminescent in vivo imaging system (IVIS).

[4] = LNP zeta potential (Zetasizer); assay type: physicochemical; conditions: LNP with cirRNA (SEQ ID NO: 1)
Outline: as §1

Hep G2 cells [5] = test: In vitro expression of firefly-luciferase, Hep G2; assay type: cell-based; conditions: cirRNA (SEQ ID NO: 1) LNPs; firefly-luciferase luminescence; Hep G2 cells
Outline: (§3)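 Transfection used 100 ng/mL luciferase-encoding RNA-LNPs; activity in lysates was determined at 72 h.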

Hep G2 cells [6] = test: In vitro toxicity (CellTiter-Glo cell viability), Hep G2; assay type: cell-based; conditions: cirRNA (SEQ ID NO: 1) LNPs; Hep G2 cells;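 further: percent of untreated cells luminescence signal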
Outline: as §2

RAW 264.7 cells [7] = test: In vitro expression of firefly-luciferase, RAW 264.7; assay type: cell-based; conditions: cirRNA (SEQ ID NO: 1) LNPs; firefly-luciferase luminescence; RAW 264.7 cells
Outline: as §3

CCCCCCCCCC(=O)OCCCCCCCCN(CCCCCCCCOC(=O)CCCCCCCCC)CCOC(=O)NCCN1CCCC1 [Lipid 209]
Encapsulation Efficiency % [1]: 93%
PDI [2]: 0.1886
Size [2]: 86.68
In vitro Viability RAW (RAW 264.7 cells [3]): 95%
In vivo Expression (Whole Body) (BALB/C mice): 6.62E+05
Zeta (mV) [4]: 13.53 mV
In vitro Expression HepG2 (Hep G2 cells [5]): 3.81E+04
In vitro Viability HepG2 (Hep G2 cells [6]): 96%
In vitro Expression RAW (RAW 264.7 cells [7]): 1.08E+02

CCCCCCCC/C=C\CCCCCCCCN(CCCCCCCCOC(=O)C(CCCCCC)CCCCCCCC)CCOC(=O)NCCN(C)C (stereo not drawn) [Lipid 211]
Encapsulation Efficiency % [1]: 94%
PDI [2]: 0.2243
Size [2]: 97.77
In vitro Viability RAW (RAW 264.7 cells [3]): 91%
In vivo Expression (Whole Body) (BALB/C mice): 1.09E+07
Zeta (mV) [4]: 7.113 mV
In vitro Expression HepG2 (Hep G2 cells [5]): 1.14E+07
In vitro Viability HepG2 (Hep G2 cells [6]): 90%
In vitro Expression RAW (RAW 264.7 cells [7]): 2.36E+05

CCCCCCCC/C=C\CCCCCCCCN(CCCCCCCCOC(=O)C(CCCCCC)CCCCCCCC)CCOC(=O)NCc1ncc[nH]1 (stereo not drawn) [Lipid 212]
Encapsulation Efficiency % [1]: 93%
PDI [2]: 0.1853
Size [2]: 65.77
In vitro Viability RAW (RAW 264.7 cells [3]): 82%
In vivo Expression (Whole Body) (BALB/C mice): 4.68E+06
Zeta (mV) [4]: −3.175 mV
In vitro Expression HepG2 (Hep G2 cells [5]): 6.37E+04
In vitro Viability HepG2 (Hep G2 cells [6]): 99%
In vitro Expression RAW (RAW 264.7 cells [7]): 1.44E+05

CCCCCCCC/C=C\CCCCCCCCN(CCCCCCCCOC(=O)C(CCCCCC)CCCCCCCC)CCOC(=O)NCCCN(CC)CC (stereo not drawn) [Lipid 213]
Encapsulation Efficiency % [1]: 94%
PDI [2]: 0.2952
Size [2]: 114.2
In vitro Viability RAW (RAW 264.7 cells [3]): 90%
In vivo Expression (Whole Body) (BALB/C mice): 2.11E+06
Zeta (mV) [4]: 13.22 mV
In vitro Expression HepG2 (Hep G2 cells [5]): 6.40E+06
In vitro Viability HepG2 (Hep G2 cells [6]): 74%
In vitro Expression RAW (RAW 264.7 cells [7]): 2.06E+04

CCCCCCCC/C=C\CCCCCCCCN(CCCCCCCCOC(=O)C(CCCCCC)CCCCCCCC)CCOC(=O)NCCN1CCN(C)CC1 (stereo not drawn) [Lipid 214]
Encapsulation Efficiency % [1]: 96%
PDI [2]: 0.304
Size [2]: 76.43
In vitro Viability RAW (RAW 264.7 cells [3]): 87%
In vivo Expression (Whole Body) (BALB/C mice): 1.18E+06
Zeta (mV) [4]: 5.906 mV
In vitro Expression HepG2 (Hep G2 cells [5]): 3.88E+06
In vitro Viability HepG2 (Hep G2 cells [6]): 83%
In vitro Expression RAW (RAW 264.7 cells [7]): 1.20E+05

CCCCCCCC/C=C\CCCCCCCCN(CCCCCCCCOC(=O)C(CCCCCC)CCCCCCCC)CCOC(=O)NCCN1CCOCC1 (stereo not drawn) [Lipid 215]
Encapsulation Efficiency % [1]: 96%
PDI [2]: 0.05226
Size [2]: 62.22
In vitro Viability RAW (RAW 264.7 cells [3]): 86%
In vivo Expression (Whole Body) (BALB/C mice): 1.61E+07
Zeta (mV) [4]: −3.755 mV
In vitro Expression HepG2 (Hep G2 cells [5]): 5.62E+04
In vitro Viability HepG2 (Hep G2 cells [6]): 85%
In vitro Expression RAW (RAW 264.7 cells [7]): 7.31E+03

CCCCCCCC/C=C\CCCCCCCCN(CCCCCCCCOC(=O)C(CCCCCC)CCCCCCCC)CCOC(=O)NCCCN(C)C (stereo not drawn) [Lipid 216]
Encapsulation Efficiency % [1]: 96%
PDI [2]: 0.4093
Size [2]: 75.92
In vitro Viability RAW (RAW 264.7 cells [3]): 75%
In vivo Expression (Whole Body) (BALB/C mice): 1.34E+06
Zeta (mV) [4]: 11.61 mV
In vitro Expression HepG2 (Hep G2 cells [5]): 1.59E+07
In vitro Viability HepG2 (Hep G2 cells [6]): 76%
In vitro Expression RAW (RAW 264.7 cells [7]): 3.31E+05

CCCCCCCC/C=C\CCCCCCCCN(CCCCCCCCOC(=O)C(CCCCCC)CCCCCCCC)CCOC(=O)NCCCn1ccnc1 (stereo not drawn) [Lipid 217]
Encapsulation Efficiency % [1]: 94%
PDI [2]: 0.1439
Size [2]: 60.05
In vitro Viability RAW (RAW 264.7 cells [3]): 90%
In vivo Expression (Whole Body) (BALB/C mice): 7.35E+06
Zeta (mV) [4]: 1.061 mV
In vitro Expression HepG2 (Hep G2 cells [5]): 2.45E+04
In vitro Viability HepG2 (Hep G2 cells [6]): 82%
In vitro Expression RAW (RAW 264.7 cells [7]): 8.05E+03

CCCCCCCC/C=C\CCCCCCCCN(CCCCCCCCOC(=O)C(CCCCCC)CCCCCCCC)CCOC(=O)NCCN1CCCC1 (stereo not drawn) [Lipid 218]
Encapsulation Efficiency % [1]: 96%
PDI [2]: 0.3124
Size [2]: 96.36
In vitro Viability RAW (RAW 264.7 cells [3]): 62%
In vivo Expression (Whole Body) (BALB/C mice): 7.53E+07
Zeta (mV) [4]: 5.94 mV
In vitro Expression HepG2 (Hep G2 cells [5]): 5.25E+06
In vitro Viability HepG2 (Hep G2 cells [6]): 71%
In vitro Expression RAW (RAW 264.7 cells [7]): 9.16E+04
